Test results reported in ChEMBL document CHEMBL1201862, “PubChem BioAssay data set” (2004).
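Test compounds were applied to cells in 96-well plates for 48 hours at 5 doses. GI50 = concentration required for 50% inhibition of growth.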 Calls of active or inactive are those of the source. Cut-off read from the data, not from the text of the source: active = GI50 up to about 1.1 µM and inactive = higher.

How the values were obtained:
Assay in all cases: DTP human tumour cell line panel, 48 h
786-0 = tested on: 786-0
CAKI-1 = tested on: CAKI-1
SNB-19 = tested on: SNB-19
RXF 393 = tested on: RXF 393
CCRF-CEM = tested on: CCRF-CEM
SF-268 = tested on: SF-268
NCI-H23 = tested on: NCI-H23
SK-MEL-28 = tested on: SK-MEL-28
TK-10 = tested on: TK-10
SK-OV-3 = tested on: SK-OV-3
HCT-116 = tested on: HCT-116
MOLT-4 = tested on: MOLT-4
SR = tested on: SR
UACC-62 = tested on: UACC-62
SN12C = tested on: SN12C
SK-MEL-5 = tested on: SK-MEL-5
UO-31 = tested on: UO-31
RPMI-8226 = tested on: RPMI-8226

SMILES | GI50 (786-0) | GI50 (CAKI-1) | GI50 (SNB-19) | GI50 (RXF 393) | GI50 (CCRF-CEM) | GI50 (SF-268) | GI50 (NCI-H23) | GI50 (SK-MEL-28) | GI50 (TK-10) | GI50 (SK-OV-3) | GI50 (HCT-116) | GI50 (MOLT-4) | GI50 (SR) | GI50 (UACC-62) | GI50 (SN12C) | GI50 (SK-MEL-5) | GI50 (UO-31) | GI50 (RPMI-8226)
CC1(C)C(=O)CCC(=O)C(C)(C)C2=CC=C(O2)C(C)(C)C(=O)CCC(=O)C(C)(C)C2=CC=C1O2 | > 100 µM (inactive) | > 100 µM (inactive) | > 100 µM (inactive) | > 100 µM (inactive) | > 100 µM (inactive) | > 100 µM (inactive) | > 100 µM (inactive) | > 100 µM (inactive) | > 100 µM (inactive) | > 100 µM (inactive) | > 100 µM (inactive) | > 100 µM (inactive) | > 100 µM (inactive) | – | – | – | – | –
Cc1ccc(/C=C/C(=O)c2ccc(Cl)c(Cl)c2)cc1 | > 100 µM (inactive) | > 100 µM (inactive) | > 100 µM (inactive) | 84.1 µM (inactive) | > 100 µM (inactive) | > 100 µM (inactive) | > 100 µM (inactive) | > 100 µM (inactive) | > 100 µM (inactive) | > 10 µM (inactive) | > 100 µM (inactive) | > 100 µM (inactive) | > 100 µM (inactive) | > 100 µM (inactive) | > 100 µM (inactive) | > 100 µM (inactive) | > 100 µM (inactive) | –
CSC(=S)N(C)NC(=O)c1cccc(C(=O)NN(C)C(=S)SC)n1 | 19.4 µM (inactive) | – | 26.4 µM (inactive) | 25.7 µM (inactive) | 2.96 µM (inactive) | 6.1 µM (inactive) | 24.2 µM (inactive) | 15.4 µM (inactive) | – | – | 36.3 µM (inactive) | 4.33 µM (inactive) | 4.97 µM (inactive) | 14.3 µM (inactive) | 22.2 µM (inactive) | 15.7 µM (inactive) | – | 10.3 µM (inactive)
S=C1NCCN1 | > 100 µM (inactive) | > 100 µM (inactive) | > 100 µM (inactive) | – | > 100 µM (inactive) | > 100 µM (inactive) | > 100 µM (inactive) | > 100 µM (inactive) | > 100 µM (inactive) | > 100 µM (inactive) | > 100 µM (inactive) | > 100 µM (inactive) | > 100 µM (inactive) | > 100 µM (inactive) | > 100 µM (inactive) | > 100 µM (inactive) | > 100 µM (inactive) | > 100 µM (inactive)
CSc1cc(C(C)(C)C)ccc1C(O)c1ccc(C(C)(C)C)cc1SC | 10.8 µM (inactive) | 11.3 µM (inactive) | 16 µM (inactive) | 12.1 µM (inactive) | 10.9 µM (inactive) | 13.3 µM (inactive) | 8.49 µM (inactive) | 17.5 µM (inactive) | 15.2 µM (inactive) | 17.5 µM (inactive) | 5.56 µM (inactive) | 3.35 µM (inactive) | 10.2 µM (inactive) | 15.3 µM (inactive) | 13.1 µM (inactive) | 14.4 µM (inactive) | 6.37 µM (inactive) | –
Cn1c(=O)c(C(c2ccccc2)c2c(O)c3ccccc3n(C)c2=O)c(O)c2ccccc21 | > 100 µM (inactive) | > 100 µM (inactive) | > 100 µM (inactive) | > 100 µM (inactive) | – | > 100 µM (inactive) | > 100 µM (inactive) | > 100 µM (inactive) | > 100 µM (inactive) | > 100 µM (inactive) | > 100 µM (inactive) | 45.3 µM (inactive) | 45.5 µM (inactive) | > 100 µM (inactive) | > 100 µM (inactive) | > 100 µM (inactive) | > 100 µM (inactive) | > 100 µM (inactive)
CC(C)CCCC(C)[C@H]1CCC2[C@H]3C(CC[C@@]21C)[C@@]1(C)CCC=C[C@]12C[C@@H]2[C@@H]3O (some centres undefined) | > 100 µM (inactive) | > 100 µM (inactive) | > 100 µM (inactive) | > 100 µM (inactive) | > 100 µM (inactive) | > 100 µM (inactive) | – | > 100 µM (inactive) | > 100 µM (inactive) | > 100 µM (inactive) | > 100 µM (inactive) | > 100 µM (inactive) | > 100 µM (inactive) | > 100 µM (inactive) | > 100 µM (inactive) | > 100 µM (inactive) | > 100 µM (inactive) | > 100 µM (inactive)
Cc1cccc2cc3cccc(C(=O)NCCN(C)C)c3nc12 | 0.129 µM (active) | 0.027 µM (active) | 0.191 µM (active) | 0.269 µM (active) | 0.0575 µM (active) | 0.296 µM (active) | 0.171 µM (active) | 0.519 µM (active) | 0.317 µM (active) | 0.138 µM (active) | 0.0354 µM (active) | < 0.01 µM (active) | 0.0224 µM (active) | 0.129 µM (active) | 0.063 µM (active) | 0.173 µM (active) | 0.083 µM (active) | –
CN(C)CCNc1nc(-c2cccs2)cc(-c2cccs2)n1 | 15.2 µM (inactive) | > 10 µM (inactive) | – | 14.6 µM (inactive) | 4.41 µM (inactive) | – | 10.5 µM (inactive) | 15.9 µM (inactive) | 14.9 µM (inactive) | > 10 µM (inactive) | 11.3 µM (inactive) | 3 µM (inactive) | 2.84 µM (inactive) | 19.1 µM (inactive) | 12.9 µM (inactive) | 15.3 µM (inactive) | 11.2 µM (inactive) | –
